Assays:
Type in all cases: biochemical
[1] = tested on: protease of Beauveria sp MTCC 5184; assay: Effect of metal ions on protease activity; settings: for Residual Activity (%): 28° C., 30 min; for inhibition: 1 mM
Description: (§1) The protease activity has been expressed in terms of tyrosine equivalents. The reaction mixture contained an aliquot of suitably diluted enzyme solution and 10 mg Hammerstein casein in 0.1 M sodium carbonate buffer pH 9.0 in a total volume of 2 ml. After incubation at 50° C. for 10 min, the reaction was terminated by the addition of 3 ml of 5% trichloroacetic acid (acidified with concentrated hydrochloric acid). The precipitate formed was filtered through Whatman No. 1 filter paper after standing for 30 min at room temperature. The absorbance of trichloroacetic acid soluble fraction was measured at 280 nm. Micrograms of tyrosine produced was calculated from a pre-calibrated graph of absorbance at 280 nm against tyrosine concentration and the units are expressed as […] of tyrosine released per minute under assay conditions.
This example illustrates the effect of metal ions on protease activity of Beauveria sp MTCC 5184.

[2] = tested on: purified protease of Beauveria sp MTCC 5184; assay: Stability of purified protease in organic solvents at 50° C.; settings: 25% (v/v) solvent
Text: Following organic solvents were used: acetone, 1-butanol, benzene, chloroform, dimethylsulphoxide, ethanol, hexane, isopropanol and methanol. […] Samples were removed at different time intervals and residual activity was estimated.

[3] = tested on: purified protease of Beauveria sp MTCC 5184; assay: Effect of β-mercapto ethanol and Triton X-100 on protease activity; settings: 30 min
Text: This example illustrates the effect of β-mercapto ethanol (BME) and Triton X-100 on protease activity of Beauveria sp MTCC 5184.

[4] = tested on: protease of Beauveria sp MTCC 5184; assay: Modification of serine residue of protease by PMSF; settings: 28° C., 30 min
Description: This example illustrates the modification of serine residue of protease by PMSF and its effect on protease activity. […] Protease incubated without PMSF served as the control.

[5] = tested on: protease of Beauveria sp MTCC 5184; assay: Substrate protection by casein against inhibition by PMSF, NBS and WRK
Text: The example illustrates the study of substrate protection by casein on inhibition of Beauveria sp MTCC 5184 protease by PMSF, WRK and NBS. […] Increase in casein concentration decreased the inhibition by both the inhibitors indicating substrate protection by casein (Table 11). This indicates the presence of serine, aspartic acid and tryptophan at the active site of protease.

[6] = tested on: protease of Beauveria sp MTCC 5184; assay: Effect of inhibitors on protease activity
Description: as §1
This example illustrates the effect of inhibitors on protease activity of Beauveria sp MTCC 5184. Following inhibitors were studied: phenylmethylsulfonyl fluoride (PMSF), ethylene-diaminetetraacetic acid (EDTA), iodoacetic acid, N-tosyl-L-phenylalanine chloromethyl ketone (TPCK), N-tosyl-L-lysine chloromethyl ketone (TLCK), Dimethylsulphoxide (DMSO) and Benzamidine. […] Protease without inhibitor served as control.

[7] = tested on: protease of Beauveria sp MTCC 5184; assay: Modification of tryptophan of protease with NBS; settings: 28° C., 30 min
Description: This example illustrates the modification of tryptophan with N-bromosuccinimide (NBS) and its effect on protease activity. […] Protease incubated without NBS served as the control.

[8] = tested on: protease of Beauveria sp MTCC 5184; assay: Modification of aspartic acid residue of protease by WRK; settings: 28° C., 30 min
Description: This example illustrates the modification of aspartic acid residue of protease by Woodward's reagent (WRK) and its effect on protease activity. […] Protease incubated without WRK served as the control.

[9] = inhibitor 5 mM, pre-incubated 1 h, pH 8.0

[Cl-].[K+] [K^+1]
Residual Activity (%) ([1]; 1 mM chloride salt): 91.71%
Residual Activity (%) ([1]; 10 mM chloride salt): 87.63%

CC(C)O [Isopropanol, isopropanol]
Residual Activity (%) ([2]; 0 h, pH 7): 100.00%
Residual Activity (%) ([2]; 1 h, pH 7): 71.26%
Residual Activity (%) ([2]; 2 h, pH 7): 46.16%

[Cl][Fe]([Cl])[Cl] [Fe^+3]
Residual Activity (%) ([1]; 1 mM chloride salt): 81.67%
Residual Activity (%) ([1]; 10 mM chloride salt): 82.66%

Triton X-100
activity retained ([3]; 2% Triton X-100, 28° C.): 80%

CCO [Ethanol, ethanol]
Residual Activity (%) ([2]; 0 h, pH 7): 100.00%
Residual Activity (%) ([2]; 1 h, pH 7): 98.50%
Residual Activity (%) ([2]; 2 h, pH 7): 45.21%

c1ccccc1 [Benzene, benzene]
Residual Activity (%) ([2]; 0 h, pH 7): 100.00%
Residual Activity (%) ([2]; 1 h, pH 7): 61.85%
Residual Activity (%) ([2]; 2 h, pH 7): 40.66%

O=S(=O)(F)Cc1ccccc1 [PMSF, phenylmethylsulfonyl fluoride]
concentration at which complete inhibition was observed ([4]; 10 μM purified protease): 0.025 mM
Residual Activity (%) ([4]; PMSF 0.005 mM): 45.65%
Residual Activity (%) ([4]; PMSF 0.010 mM): 8.78%
Residual Activity (%) ([4]; PMSF 0.015 mM): 3.76%
Residual Activity (%) ([4]; PMSF 0.020 mM): 1.74%
Residual Activity (%) ([4]; PMSF 0.025 mM): 0%
Residual Activity (%) ([4]; PMSF 0.030 mM): 0%
Residual Activity (%) ([4]; PMSF 0.035 mM): 0%
Residual Activity (%) ([4]; PMSF 0.040 mM): 0%
Residual Activity (%) ([4]; PMSF 0.045 mM): 0%
Residual Activity (%) ([4]; PMSF 0.050 mM): 0%
Inhibition (%) ([5]; 0.01 mM PMSF, casein 0 mg): 95.02%
Inhibition (%) ([5]; 0.01 mM PMSF, casein 1 mg): 74.91%
Inhibition (%) ([5]; 0.01 mM PMSF, casein 2 mg): 70.78%
Inhibition (%) ([5]; 0.01 mM PMSF, casein 3 mg): 64.06%
Inhibition (%) ([5]; 0.01 mM PMSF, casein 4 mg): 60.71%
Inhibition (%) ([5]; 0.01 mM PMSF, casein 5 mg): 52.65%
Inhibition (%) ([5]; 0.01 mM PMSF, casein 6 mg): 45.22%
Inhibition (%) ([5]; 0.01 mM PMSF, casein 7 mg): 41.73%
Inhibition (%) ([5]; 0.01 mM PMSF, casein 8 mg): 34.80%
Inhibition (%) ([5]; 0.01 mM PMSF, casein 9 mg): 31.56%
Inhibition (%) ([5]; 0.01 mM PMSF, casein 10 mg): 26.26%

CCCCCC [Hexane, hexane]
Residual Activity (%) ([2]; 0 h, pH 7): 100.00%
Residual Activity (%) ([2]; 1 h, pH 7): 76.18%
Residual Activity (%) ([2]; 2 h, pH 7): 29.43%

[Cd+2] [Cd^+2]
inhibition [1]: 3%
Residual Activity (%) ([1]; 1 mM chloride salt): 96.99%
Residual Activity (%) ([1]; 10 mM chloride salt): 63.50%

C[S+](C)[O-] [DMSO, Dimethylsulphoxide]
Inhibition (%) ([6]; inhibitor 10%, pre-incubated 1 h, pH 8.0): 0.04%
Residual Activity (%) ([2]; 0 h, pH 7): 100.00%
Residual Activity (%) ([2]; 1 h, pH 7): 87.52%

1-butanol
Residual Activity (%) ([2]; 0 h, pH 7): 100.00%
Residual Activity (%) ([2]; 1 h, pH 7): 82.07%
Residual Activity (%) ([2]; 2 h, pH 7): 46.38%

[Ca+2].[Cl-].[Cl-] [Ca^+2]
activation of protease activity ([1]; 1 mM and 10 mM): no activation
Residual Activity (%) ([1]; 1 mM chloride salt): 92.99%
Residual Activity (%) ([1]; 10 mM chloride salt): 81.75%

ClC(Cl)Cl [Chloroform, chloroform]
Residual Activity (%) ([2]; 0 h, pH 7): 100.00%
Residual Activity (%) ([2]; 1 h, pH 7): 77.14%
Residual Activity (%) ([2]; 2 h, pH 7): 38.55%

OCCS [BME, β-mercapto ethanol]
activity retained ([3]; 10% BME, 28° C.): retained full activity

N-tosyl-L-phenylalanine chloromethyl ketone [TPCK]
Inhibition (%) [6, 9]: 7.33%

[Cl][Mn][Cl] [Mn^+2]
Residual Activity (%) ([1]; 1 mM chloride salt): 101.51%
Residual Activity (%) ([1]; 10 mM chloride salt): 73.98%

[Cl-].[Cl-].[Co+2] [Co^+2]
inhibitory effect on the protease ([1]; 1 mM and 10 mM): no inhibitory effect
Residual Activity (%) ([1]; 1 mM chloride salt): 103.86%
Residual Activity (%) ([1]; 10 mM chloride salt): 112.36%

N-tosyl-L-lysine chloromethyl ketone [TLCK]
Inhibition (%) [6, 9]: 12.12%

O=C(O)CN(CCN(CC(=O)O)CC(=O)O)CC(=O)O [EDTA, ethylene-diaminetetraacetic acid]
Inhibition (%) ([6]; inhibitor 20 mM, pre-incubated 1 h, pH 8.0): 1.51%

N=C(N)c1ccccc1 [Benzamidine]
Inhibition (%) [6, 9]: 3.62%

O=C1CCC(=O)N1Br [NBS, N-bromosuccinimide]
concentration at which complete inhibition was observed ([7]; 10 μM purified protease): 0.06 mM
Residual Activity (%) ([7]; NBS 0.01 mM): 20.39%
Residual Activity (%) ([7]; NBS 0.02 mM): 15.70%
Residual Activity (%) ([7]; NBS 0.03 mM): 12.55%
Residual Activity (%) ([7]; NBS 0.04 mM): 8.93%
Residual Activity (%) ([7]; NBS 0.05 mM): 7.08%
Residual Activity (%) ([7]; NBS 0.06 mM): 0%
Residual Activity (%) ([7]; NBS 0.07 mM): 0%
Residual Activity (%) ([7]; NBS 0.08 mM): 0%
Residual Activity (%) ([7]; NBS 0.09 mM): 0%
Residual Activity (%) ([7]; NBS 0.10 mM): 0%
Inhibition (%) ([5]; 0.01 mM NBS, casein 0 mg): 87.06%
Inhibition (%) ([5]; 0.01 mM NBS, casein 1 mg): 84.85%
Inhibition (%) ([5]; 0.01 mM NBS, casein 2 mg): 69.95%
Inhibition (%) ([5]; 0.01 mM NBS, casein 3 mg): 64.09%
Inhibition (%) ([5]; 0.01 mM NBS, casein 4 mg): 48.93%
Inhibition (%) ([5]; 0.01 mM NBS, casein 5 mg): 43.25%
Inhibition (%) ([5]; 0.01 mM NBS, casein 6 mg): 38.03%
Inhibition (%) ([5]; 0.01 mM NBS, casein 7 mg): 34.06%
Inhibition (%) ([5]; 0.01 mM NBS, casein 8 mg): 24.25%
Inhibition (%) ([5]; 0.01 mM NBS, casein 9 mg): 16.27%
Inhibition (%) ([5]; 0.01 mM NBS, casein 10 mg): 16.28%

O=C(O)CI [Iodoacetate, iodoacetic acid]
Inhibition (%) ([6]; pH 8): 0.30%

CC(C)=O [Acetone, acetone]
Residual Activity (%) ([2]; 0 h, pH 7): 100.00%
Residual Activity (%) ([2]; 1 h, pH 7): 99.07%
Residual Activity (%) ([2]; 2 h, pH 7): 70.45%
Residual Activity (%) ([2]; 2 h, pH 7, listed as acetone): around 70%

[Hg+2] [Hg^+2]
inhibition [1]: 10%
Residual Activity (%) ([1]; 1 mM chloride salt): 90.38%
Residual Activity (%) ([1]; 10 mM chloride salt): 63.16%

CC[n+]1ccc(-c2cccc(S(=O)(=O)[O-])c2)o1 [WRK, Woodward's reagent]
concentration at which complete inhibition was observed ([8]; 10 μM purified protease): 9 mM
Residual Activity (%) ([8]; WRK 1 mM): 86.08%
Residual Activity (%) ([8]; WRK 2 mM): 75.76%
Residual Activity (%) ([8]; WRK 3 mM): 61.47%
Residual Activity (%) ([8]; WRK 4 mM): 49.05%
Residual Activity (%) ([8]; WRK 5 mM): 34.66%
Residual Activity (%) ([8]; WRK 6 mM): 19.53%
Residual Activity (%) ([8]; WRK 7 mM): 11.69%
Residual Activity (%) ([8]; WRK 8 mM): 6.39%
Residual Activity (%) ([8]; WRK 9 mM): 0%
Residual Activity (%) ([8]; WRK 10 mM): 0%
Inhibition (%) ([5]; 5 mM WRK, casein 0 mg): 75.26%
Inhibition (%) ([5]; 5 mM WRK, casein 1 mg): 66.03%
Inhibition (%) ([5]; 5 mM WRK, casein 2 mg): 59.32%
Inhibition (%) ([5]; 5 mM WRK, casein 3 mg): 53.22%
Inhibition (%) ([5]; 5 mM WRK, casein 4 mg): 45.06%
Inhibition (%) ([5]; 5 mM WRK, casein 5 mg): 40.25%
Inhibition (%) ([5]; 5 mM WRK, casein 6 mg): 31.10%
Inhibition (%) ([5]; 5 mM WRK, casein 7 mg): 26.27%
Inhibition (%) ([5]; 5 mM WRK, casein 8 mg): 19.32%
Inhibition (%) ([5]; 5 mM WRK, casein 9 mg): 12.87%
Inhibition (%) ([5]; 5 mM WRK, casein 10 mg): 8.72%

[Cl][Cu][Cl] [Cu^+2]
inhibitory effect on the protease ([1]; 1 mM and 10 mM): no inhibitory effect
Residual Activity (%) ([1]; 1 mM chloride salt): 109.42%
Residual Activity (%) ([1]; 10 mM chloride salt): 100.02%

[Cl-].[Na+] [Na^+1]
Residual Activity (%) ([1]; 1 mM chloride salt): 100.94%
Residual Activity (%) ([1]; 10 mM chloride salt): 99.01%
